Experimental findings from patent US12503452B2 (Curza Global, LLC, priority 2019, dated 2025) are described below.

In assay [1] the target is Rabbit Reticulocyte Lysate (eukaryotic protein synthesis). The assay can be described thus: Rabbit reticulocyte lysate luciferase assay (inhibition of eukaryotic protein synthesis). It counts as biochemical. Conditions: class by IC50 or % inhibition @ 1 μM, read-out: Rabbit reticulocyte IC50 (μM/% inhib.). The method, boiled down: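 Compounds were tested in 8-point 2-fold dilution series for blocking luciferase synthesis in nuclease-treated rabbit reticulocyte lysate (30° C., 90 minutes). Luminescence read-out, corrected by no-RNA background, was expressed as % inhibition against water-only reactions.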

The subject of assay [2] is E. coli S30 extract (bacterial protein synthesis). Kind of assay: E. coli S30 extract coupled transcription-translation luciferase assay (inhibition of bacterial protein synthesis). It counts as biochemical. As to conditions: class by IC50 or % inhibition @ 1 μM, read-out: S30 IC50 (μM/% inhib.). The method, boiled down: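 Luminescent read-out of luciferase made from pBESTluc DNA by E. coli S30 extract after 1 h at 37 °C with compound in an 8-point 2-fold series. Background came from no-DNA reactions. Percent inhibition was calculated against water-only controls.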

In assay [3] the test system is P. aeruginosa (Pa). Kind of assay: Broth microdilution minimum inhibitory concentration (MIC). Conditions: Pseudomonas aeruginosa, P. aeruginosa; growth medium supplemented with sodium bicarbonate; read-out: Pa MIC + bicarb. It counts as cell-based. The method, boiled down:
(§1)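 Inoculum of 5×10^4 CFU/well, prepared from colonies grown to 0.5 McFarland (A600) at 35±2 °C, is exposed to two-fold serial dilutions in CAMHB-based media (± bicarbonate or human serum). Modified CLSI microdilution, triplicate.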

Assay [4] deals with E. faecalis (Ef). The assay is described as above. It is filed as cell-based. Conditions: Enterococcus faecalis, E. faecalis; growth medium supplemented with sodium bicarbonate; read-out: Ef + bicarb MIC. In outline:
as §1

Assay [5] concerns E. coli (Ec). The description is as above. It counts as cell-based. As to conditions: Escherichia coli, E. coli; growth medium supplemented with sodium bicarbonate; read-out: E. coli + bicarb MIC. In outline:
as §1

The subject of assay [6] is S. aureus (Sa). Described as above. It is filed as cell-based. As to conditions: Staphylococcus aureus, S. aureus; growth medium supplemented with sodium bicarbonate; read-out: Sa + bicarb MIC. The method, boiled down: as §1
Assay [7] has as its system A. baumannii (Ab). Described as above. It counts as cell-based. Conditions: Acinetobacter baumannii; A. baumannii; growth medium supplemented with sodium bicarbonate; read-out: Ab + bicarb MIC. The method, boiled down: as §1

Take `CC(C)(N)C(=O)N1CCN(C(=O)Nc2ccn(-c3ccc(CN(CC4CC4)[C@H]4CC[C@H](N)CC4)cc3)c(=O)n2)CC1` [Compound 130]: the IC50 in assay [1] is over 1 µM; in assay [2], under 0.5 µM. Also, the MIC was 8 to 32 µg/mL in assay [3]; under 8 µg/mL in assay [4]; under 8 µg/mL in assay [5]; under 8 µg/mL in assay [6]; 8 to 32 µg/mL in assay [7].
Turning to `CCCN(Cc1ccc(-n2ccc(NC(=O)N3CCN(C(=O)C(C)(C)N)CC3)nc2=O)cc1)[C@H]1CC[C@H](N)CC1` [Compound 131], the figures for the IC50 in assay [1] and in assay [2] were over 1 µM and under 0.5 µM, respectively. The MIC in assay [3] is 8 to 32 µg/mL; in assay [4], under 8 µg/mL; in assay [5], under 8 µg/mL; in assay [6], under 8 µg/mL; in assay [7], under 8 µg/mL.
Consider `CC(C)(N)C(=O)N1CCN(C(=O)Nc2ccn(-c3ccc(CN(CCO)[C@H]4CC[C@H](N)CC4)cc3)c(=O)n2)CC1` [Compound 132], for which the IC50 in assay [1] is over 1 µM; in assay [2], under 0.5 µM. Moreover, the MIC in assay [3] was over 32 µg/mL; in assay [4] it was over 32 µg/mL; in assay [5], under 8 µg/mL; in assay [6] it was under 8 µg/mL; in assay [7] it was over 32 µg/mL.
For `C[C@](N)(CO)C(=O)N1CCN(C(=O)Nc2ccn(-c3ccc(CN4CC(CCN)C4)cc3)c(=O)n2)CC1` [Compound 136], the results for the IC50 in assay [1] and in assay [2] were over 1 µM and under 0.5 µM, respectively. The minimum inhibitory concentration (MIC) in assay [3] was over 32 µg/mL; in assay [4], 8 to 32 µg/mL; in assay [5], 8 to 32 µg/mL; in assay [6] it was 8 to 32 µg/mL; in assay [7] it was over 32 µg/mL.
Consider `CC(C)(N)C(=O)N1CCN(C(=O)Nc2ccn(-c3ccc(CN4CC(O)(CN)C4)cc3)c(=O)n2)CC1` [Compound 137], for which the figures for the IC50 in assay [1] and in assay [2] were over 1 µM and under 0.5 µM, respectively. Further, the minimum inhibitory concentration (MIC) was over 32 µg/mL in assay [3]; over 32 µg/mL in assay [4]; under 8 µg/mL in assay [5]; 8 to 32 µg/mL in assay [6]; over 32 µg/mL in assay [7].
On to `CC(C)(N)C(=O)N1CCN(C(=O)Nc2ccn(-c3ccc(CN(CCF)[C@H]4CC[C@H](N)CC4)cc3)c(=O)n2)CC1` [Compound 138], for which the IC50 in assay [1] was over 1 µM; in assay [2], 0.5 to 1 µM. Besides, the MIC is over 32 µg/mL in assay [3]; over 32 µg/mL in assay [4]; under 8 µg/mL in assay [5]; under 8 µg/mL in assay [6]; over 32 µg/mL in assay [7].
On to `Cc1cc(-n2ccc(NC(=O)N3CCN(C(=O)[C@@](C)(N)CO)CC3)nc2=O)ccc1CCN1CCCC(N)CC1` (stereo partly shown) [Compound 139], for which the figures for the IC50 in assay [1] and in assay [2] were over 1 µM and under 0.5 µM, respectively. Besides, the MIC is 8 to 32 µg/mL in assay [3]; under 8 µg/mL in assay [4]; under 8 µg/mL in assay [5]; under 8 µg/mL in assay [6]; over 32 µg/mL in assay [7].
With `Cc1cc(-n2ccc(NC(=O)N3CCN(C(=O)C(C)(C)N)CC3)nc2=O)ccc1CCN1CCCC(N)CC1` (stereo not shown) [Compound 140], the figures for the IC50 in assay [1] and in assay [2] were over 1 µM and under 0.5 µM, respectively. In addition, the MIC in assay [3] was 8 to 32 µg/mL; in assay [4] it was under 8 µg/mL; in assay [5] it was under 8 µg/mL; in assay [6], under 8 µg/mL; in assay [7] it was 8 to 32 µg/mL.
As to `CC(C)(N)C(=O)N1CCN(C(=O)Nc2ccn(-c3ccc(CCN4CCCC(N)CC4)c(F)c3)c(=O)n2)CC1` (stereo not shown) [Compound 141], the figures for the IC50 in assay [1] and in assay [2] were over 1 µM and under 0.5 µM, respectively. Further, the MIC in assay [3] is 8 to 32 µg/mL; in assay [4] it was under 8 µg/mL; in assay [5], under 8 µg/mL; in assay [6], under 8 µg/mL; in assay [7], over 32 µg/mL.
As to `CC(C)(N)C(=O)N1CCN(C(=O)Nc2ccn(-c3ccc(CCN4CCCC(N)CC4)c(C(F)(F)F)c3)c(=O)n2)CC1` (stereo not shown) [Compound 142], the IC50 is over 1 µM in assay [1] and under 0.5 µM in assay [2]. In addition, the MIC in assay [3] was 8 to 32 µg/mL; in assay [4] it was under 8 µg/mL; in assay [5], under 8 µg/mL; in assay [6], under 8 µg/mL; in assay [7], 8 to 32 µg/mL.
Consider `CC(C)(N)C(=O)N1CCN(C(=O)Nc2ccn(-c3ccc(C[C@@H](N)C(=O)N4CCCC(N)CC4)cc3)c(=O)n2)CC1` (stereo partly shown) [Compound 143], for which the IC50 in assay [1] and in assay [2] was over 1 µM throughout. For the same molecule, the MIC in assay [3], in assay [4], in assay [5], in assay [6] and in assay [7] was over 32 µg/mL throughout.
With `CC(C)(N)C(=O)N1CCN(C(=O)Nc2ccn(-c3ccc(C(N)C(=O)N4CC(N)C4)cc3)c(=O)n2)CC1` (stereo not shown) [Compound 144], the IC50 in assay [1] and in assay [2] was over 1 µM throughout. Moreover, the MIC in assay [3], in assay [4], in assay [5], in assay [6] and in assay [7] was over 32 µg/mL each time.
On to `CC(C)(N)C(=O)N1CCN(C(=O)Nc2ccn(-c3ccc(C(N)C(=O)NC4CNC4)cc3)c(=O)n2)CC1` (stereo not shown) [Compound 145], for which the IC50 in assay [1] is over 1 µM; in assay [2], 0.5 to 1 µM. Besides, the MIC in assay [3], in assay [4], in assay [5], in assay [6] and in assay [7] was over 32 µg/mL each time.
With `CC(C)(N)C(=O)N1CCN(C(=O)Nc2ccn(-c3ccc(C[C@H](N)C(=O)N4CC(N)C4)cc3)c(=O)n2)CC1` [Compound 146], the IC50 in assay [1] and in assay [2] was over 1 µM each time. Moreover, the MIC in assay [3], in assay [4], in assay [5], in assay [6] and in assay [7] was over 32 µg/mL each time.
Consider `CC(C)(N)C(=O)N1CCN(C(=O)Nc2ccn(-c3ccc(C[C@H](N)C(=O)NC4CNC4)cc3)c(=O)n2)CC1` [Compound 147], for which the IC50 in assay [1] and in assay [2] was over 1 µM in each case. Besides, the MIC in assay [3], in assay [4], in assay [5], in assay [6] and in assay [7] was over 32 µg/mL throughout.
As to `CC(C)(N)C(=O)N1CCN(C(=O)Nc2ccn(-c3ccc(C[C@H](N)C(=O)N4CCCC(N)CC4)cc3)c(=O)n2)CC1` (stereo partly shown) [Compound 148], the IC50 in assay [1] was over 1 µM; in assay [2], under 0.5 µM. For the same molecule, the MIC in assay [3], in assay [4], in assay [5], in assay [6] and in assay [7] was over 32 µg/mL throughout.
For `CC(Cc1ccc(-n2ccc(NC(=O)N3CCN(C(=O)C(C)(C)N)CC3)nc2=O)cc1)N(C)[C@H]1CC[C@@H](N)C1` (stereo partly shown) [Compound 149], the results for the IC50 in assay [1] and in assay [2] were over 1 µM and under 0.5 µM, respectively. Also, the MIC in assay [3] is over 32 µg/mL; in assay [4] it was 8 to 32 µg/mL; in assay [5] it was under 8 µg/mL; in assay [6], under 8 µg/mL; in assay [7] it was over 32 µg/mL.
For the molecule `CC(Cc1ccc(-n2ccc(NC(=O)N3CCN(C(=O)C(C)(C)N)CC3)nc2=O)cc1)N[C@H]1CC[C@@H](N)C1` (stereo partly shown) [Compound 150], the results for the IC50 in assay [1] and in assay [2] were over 1 µM and 0.5 to 1 µM, respectively. The MIC in assay [3] is over 32 µg/mL; in assay [4] it was over 32 µg/mL; in assay [5], under 8 µg/mL; in assay [6], under 8 µg/mL; in assay [7], over 32 µg/mL.
Turning to `CCN(C(C)Cc1ccc(-n2ccc(NC(=O)N3CCN(C(=O)C(C)(C)N)CC3)nc2=O)cc1)[C@H]1CC[C@@H](N)C1` (stereo partly shown) [Compound 151], the IC50 in assay [1] is over 1 µM; in assay [2] it was under 0.5 µM. Besides, the MIC in assay [3] was 8 to 32 µg/mL; in assay [4] it was under 8 µg/mL; in assay [5], under 8 µg/mL; in assay [6], under 8 µg/mL; in assay [7], over 32 µg/mL.
Consider `CC(Cc1ccc(-n2ccc(NC(=O)N3CCN(C(=O)C(C)(C)N)CC3)nc2=O)cc1)NC1CCC(CN)CC1` (stereo not shown) [Compound 152], for which the IC50 in assay [1] and in assay [2] was over 1 µM in each case. Also, the MIC was over 32 µg/mL in assay [3]; over 32 µg/mL in assay [4]; under 8 µg/mL in assay [5]; under 8 µg/mL in assay [6]; over 32 µg/mL in assay [7].
Take `CC(Cc1ccc(-n2ccc(NC(=O)N3CCN(C(=O)C(C)(C)N)CC3)nc2=O)cc1)N(C)C1CCC(CN)CC1` (stereo not shown) [Compound 153]: the IC50 in assay [1] and in assay [2] was over 1 µM in each case. Further, the MIC in assay [3] is over 32 µg/mL; in assay [4], over 32 µg/mL; in assay [5] it was under 8 µg/mL; in assay [6] it was under 8 µg/mL; in assay [7], over 32 µg/mL.
As to `CCN(C(C)Cc1ccc(-n2ccc(NC(=O)N3CCN(C(=O)C(C)(C)N)CC3)nc2=O)cc1)C1CCC(CN)CC1` (stereo not shown) [Compound 154], the IC50 in assay [1] is over 1 µM; in assay [2], under 0.5 µM. Moreover, the MIC in assay [3] was over 32 µg/mL; in assay [4] it was under 8 µg/mL; in assay [5], under 8 µg/mL; in assay [6] it was under 8 µg/mL; in assay [7], over 32 µg/mL.
